Experimental data reported in patent publication US8809550B2, “Androgen receptor antagonists and uses thereof” (priority 2009, dated 2014).
pIC50: −log10 of the molar value.

Assays:
[1] = tested on: LNCaP cells; assay: Cell viability assay, LNCaP cells; type: cell-based; conditions: Homo sapiens, LNCaP, 48 h, read-out: Inhibition of cell viability, LNCaP % inhibition at 2.5 uM
Protocol: (§1) LNCaP and 22RV1 cells were maintained in RPMI 1640 medium supplemented with 10% fetal bovine serum (FBS), 100 U/mL penicillin, 100 μg/mL streptomycin, and 0.25 μg/mL amphotericin B, splitting cells when they reached 80-90% confluence. In order to test compounds, 10,000 cells/well were plated in 96 cell culture plates using 100 ul/well plating medium, cultured overnight at 37° C. in a cell culture incubator. After carefully remove plating medium, 80 ul/well of pre-warmed assay medium was added, followed by adding 10 ul/well test compounds or bicalutamide (final concentration from 20 uM to 0.1 uM), incubated at 37° C. for 30 minutes, then adding 10 ul/well freshly prepared Methyltrienolone (R1881, AR agonist) (final concentration 1 ng/ml) to each well, incubate at 37° C. for 48-hour. At the end of incubation, 20 μl MTT (2.5 mg/ml in PBS) was added to each well, and the cells were further incubated for 2 h at 37 C to allow a complete reaction between the dye and the enzyme mitochondrial dehydrogenase in the viable cells. After removal of the residual dye and medium, 100 μl dimethylsulfoxide was added to each well, and the absorbance at 570 nm was measured with an microplate reader. The fold induction over background by 1 nM R1881 in the absence of test compounds is standardized as 100% and experimental result is expressed as percentage of inhibition by testing compounds at 2.5 micromolar (uM).

[2] = tested on: 22RV1 cells; assay: Cell viability assay, 22RV1 cells; type: cell-based, human; conditions: Homo sapiens, 22Rv1, 48 h, read-out: Inhibition of cell viability, 22RV1 % inhibition at 2.5 uM
Protocol: as §1

[3] = tested on: Prostate-specific Antigen (PSA) production in LNCaP cells; assay: PSA assay: inhibition of PSA production in LNCaP cells (ELISA); type: cell-based; conditions: Homo sapiens, 72 h, R1881 1 ng/ml, three days, seven point assay
Protocol: (§2) PSA Assay (Inhibition Test of the Compound of the Present Invention on Prostate-Specific Antigen (PSA) Production in Various Prostate Cancer Cells)
(§3) Androgen dependent LNCaP and 22RV1 cells were purchased from the American Type Culture Collection (ATCC, Manassas, Va.). These cells were grown in RPMI 1640 medium supplemented with 10% fetal bovine serum (FBS), 100 U/mL penicillin, 100 μg/mL streptomycin, and 0.25 μg/mL amphotericin B. The cells were maintained at 37° C. and 5% CO2. LNCaP cells between passage 20 and 35, and 22RV1 cells between passage 30 and 50 were used for experiments. LNCaP is a hormone sensitive cell line, while 22RV1 is a hormone refractory prostate cancer cell line, which derived from a primary prostate tumor. This cell line was isolated from a xenograft (CWR22R-2152) that was serially propagated in mice after castration-induced regression and relapse of the parental, androgen-dependent CWR xenograft. For the PSA assay, human prostate cancer cells LNCaP or 22RV1 were seeded in a 96-well plate at a concentration of 5000 cells/100 μl/well. On the following day, Methyltrienolone (R1881, AR agonist) (final concentration 1 ng/ml), test compounds or bicalutamide (Casodex®, AstraZeneca) (final concentration 0.005 to 20 μM) were added. Three days after the addition, the concentration of PSA in the supernatant of the culture solution was measured by ELISA. ELISAs for human PSA in culture medium were performed using the ultra-sensitive assay procedure and reagents in the Active™ PSA assay kit (Diagnostic Systems Laboratories Inc., Webster, Tex.). Culture medium and standards (200 μl/well) were incubated in antibody-coated plates for 2 h at room temperature on a Titer plate shaker at 500-600 rpm. Wells were then washed five times. The HRP conjugate was diluted 1:20 with assay buffer, and 100 μl was added to all wells. The plates were incubated for 30 min at room temperature on the shaker and washed as before, and 100 μl TMB (3,3′,5,5′-tetramethylbenzidine, 0.4 g/l) was added. The plates were incubated for 10 min on the shaker, and the reaction was terminated with 100 μl stop solution. The plates were read using a plate reader at 450 nm with a 650 nm reference filter. PSA levels were normalized for differences in growth of LNCaP or 22RV1 cells following various treatments as determined by the MTS assay. IC50 of PSA was calculated based on a seven point assay (concentrations of tested compound) and expressed as micromolar (uM). Results on 22RV1 cells are shown as percent inhibition at 2 micromolar (uM). ND means not determined

[4] = tested on: Prostate-specific Antigen (PSA) production in 22RV1 cells; assay: PSA assay: inhibition of PSA production in 22RV1 cells (ELISA); type: cell-based; conditions: Homo sapiens, 72 h, R1881 1 ng/ml, three days
Protocol: as §2
as §3, with “Results on 22RV1 cells are shown as percent inhibition at 2 micromolar (uM).” left out

Row | SMILES | cytotoxicity at 2.5 µM [1] [%] | cytotoxicity at 2.5 µM [2] [%] | pIC50 [3] | inhibition at 2 µM [4] [%]
1 | CNC(=O)c1ccc(N2C(=S)N(c3ccc(C#N)c(Cl)c3F)C(=O)C23CCC3)cc1F [Example 8, 4-[7-(3-Chloro-4-cyano-2-fluoro-phenyl)-8-oxo-6-thioxo-5,7-diaza-spiro[3.4]oct-5-yl]-2-fluoro-N-methyl-benzamide] | 86 | 59 | 6.07 | 77
2 | CNC(=O)c1ccc(N2C(=S)N(c3ccc(C#N)cc3F)C(=O)C23CCC3)cc1F [Example 5, 4-[7-(4-Cyano-2-fluoro-phenyl)-8-oxo-6-thioxo-5,7-diaza-spiro[3.4]oct-5-yl]-2-fluoro-N-methyl-benzamide] | – | – | 5.85 | –
3 | Cc1ccc(N2C(=S)N(c3ccc(C#N)c(C(F)(F)F)c3F)C(=O)C2(C)C)cn1 [Example 15, 4-[4,4-Dimethyl-3-(6-methyl-pyridin-3-yl)-5-oxo-2-thioxo-imidazolidin-1-yl]-3-fluoro-2-trifluoromethyl-benzonitrile] | – | – | 6.46 | 69
4 | CNC(=O)c1ccc(N2C(=S)N(c3ccc(C#N)cc3C(F)(F)F)C(=O)C23CCC3)cc1F [Example 7, 4-[7-(4-Cyano-2-trifluoromethyl-phenyl)-8-oxo-6-thioxo-5,7-diaza-spiro[3.4]oct-5-yl]-2-fluoro-N-methyl-benzamide] | – | – | 5.82 | –
5 | Cc1ccc(N2C(=S)N(c3ccc(C#N)c(Cl)c3F)C(=O)C2(C)C)cn1 [Example 17, 2-Chloro-4-[4,4-dimethyl-3-(6-methyl-pyridin-3-yl)-5-oxo-2-thioxo-imidazolidin-1-yl]-3-fluoro-benzonitrile] | – | – | 6.51 | 76
6 | Cc1ccc(N2C(=S)N(c3ccc(C#N)c(Cl)c3F)C(=O)C2(C)C)cc1 [Example 29, 2-Chloro-4-(4,4-dimethyl-5-oxo-2-thioxo-3-p-tolyl-imidazolidin-1-yl)-3-fluoro-benzonitrile] | – | – | 6.55 | 78
7 | CNC(=O)c1ccc(N2C(=S)N(c3cc(F)c(C#N)cc3F)C(=O)C23CCC3)cc1F [Example 3, 4-[7-(4-Cyano-2,5-difluoro-phenyl)-8-oxo-6-thioxo-5,7-diaza-spiro[3.4]oct-5-yl]-2-fluoro-N-methyl-benzamide] | – | – | 5.68 | 21
8 | Cc1ccc(N2C(=S)N(c3ccc(C#N)c(C#N)c3)C(=O)C2(C)C)cc1F [Example 25, 4-[3-(3-Fluoro-4-methyl-phenyl)-4,4-dimethyl-5-oxo-2-thioxo-imidazolidin-1-yl]-phthalonitrile] | – | – | 6.54 | 82
9 | CC1(C)C(=O)N(c2ccc(C#N)c(C(F)(F)F)c2F)C(=S)N1c1ccc(S(C)(=O)=O)cc1 [Example 13, 3-Fluoro-4-[3-(4-methanesulfonyl-phenyl)-4,4-dimethyl-5-oxo-2-thioxo-imidazolidin-1-yl]-2-trifluoromethyl-benzonitrile] | – | – | 6.28 | 61
10 | CC1(C)C(=O)N(c2ccc(C#N)c(Cl)c2F)C(=S)N1c1ccc(S(C)(=O)=O)cc1 [Example 16, 2-Chloro-3-fluoro-4-[3-(4-methanesulfonyl-phenyl)-4,4-dimethyl-5-oxo-2-thioxo-imidazolidin-1-yl]-benzonitrile] | – | – | 6.20 | 70
11 | CC1(C)C(=O)N(c2ccc(C#N)c(C(F)(F)F)c2F)C(=S)N1c1ccc(C#N)cc1 [Example 14, 4-(4,4-Dimethyl-5-oxo-2-thioxo-3-p-cyanophenyl-imidazolidin-1-yl)-3-fluoro-2-trifluoromethyl-benzonitrile] | – | – | 6.31 | 71
12 | CNC(=O)c1ccc(N2C(=S)N(c3ccc(C#N)cc3OC(F)(F)F)C(=O)C23CCC3)cc1F [Example 4, 4-[7-(4-Cyano-2-trifluoromethoxy-phenyl)-8-oxo-6-thioxo-5,7-diaza-spiro[3.4]oct-5-yl]-2-fluoro-N-methyl-benzamide] | – | – | 5.85 | –
13 | Cc1ccc(N2C(=S)N(c3ccc(C#N)c(Cl)c3F)C(=O)C2(C)C)cc1F [Example 31, 2-Chloro-3-fluoro-4-[3-(3-fluoro-4-methyl-phenyl)-4,4-dimethyl-5-oxo-2-thioxo-imidazolidin-1-yl]-benzonitrile] | – | – | 6.38 | 67
14 | COc1c(C#N)ccc(N2C(=O)C(C)(C)N(c3ccc(S(C)(=O)=O)cc3)C2=S)c1F [Example 21, 3-Fluoro-4-[3-(4-methanesulfonyl-phenyl)-4,4-dimethyl-5-oxo-2-thioxo-imidazolidin-1-yl]-2-methoxy-benzonitrile] | – | – | 5.74 | –
15 | CNC(=O)c1ccc(N2C(=S)N(c3ccc(C#N)c(C#N)c3)C(=O)C23CCC3)cc1F [Example 9, 4-[7-(3,4-Dicyano-phenyl)-8-oxo-6-thioxo-5,7-diaza-spiro[3.4]oct-5-yl]-2-fluoro-N-methyl-benzamide] | – | – | 6.01 | 64
16 | CNC(=O)c1ccc(N2C(=S)N(c3ccc(C#N)c(OC)c3F)C(=O)C2(C)C)cc1F [Example 22, 4-[3-(4-Cyano-2-fluoro-3-methoxy-phenyl)-5,5-dimethyl-4-oxo-2-thioxo-imidazolidin-1-yl]-2-fluoro-N-methyl-benzamide] | – | – | 6.28 | 57
17 | CNC(=O)c1ccc(N2C(=S)N(c3ccc(C#N)cc3C)C(=O)C23CCC3)cc1F [Example 6, 4-[7-(4-Cyano-2-methyl-phenyl)-8-oxo-6-thioxo-5,7-diaza-spiro[3.4]oct-5-yl]-2-fluoro-N-methyl-benzamide] | – | – | 5.82 | –
